Experimental data from the supplement of paper PMC10307832.

Experiments:
Test in all cases: relative viability (nuclei count vs DMSO), 5 days (fraction); higher = more cells survive
[1] = compound: CC1=CC(=CC=C1)NC2=NC(=CS2)C3=CC=NC=C3 + CS(=O)(=O)CCNCc1ccc(-c2ccc3ncnc(Nc4ccc(OCc5cccc(F)c5)c(Cl)c4)c3c2)o1 [Lapatinib] (partner 2 µM)
In short: (§1)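 Relative viability is defined as nuclei in treated wells over nuclei in vehicle wells. Duplicate plates were run and medians reported. Lung cancer cell lines in 1536-well plates were dosed by pin tool one day after seeding, with one drug or with a fixed anchor-drug dose plus five library-drug doses (not always all listed) in √10 steps, and nuclei were counted after 5 days.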

[2] = compound: CC1=CC(=CC=C1)NC2=NC(=CS2)C3=CC=NC=C3 + O=C(c1cc(Cc2n[nH]c(=O)c3ccccc23)ccc1F)N1CCN(C(=O)C2CC2)CC1 [Olaparib] (partner 8 µM)
In short: as §1

Masitinib + Tozasertib = compound: Cc1ccc(NC(=O)c2ccc(CN3CCN(C)CC3)cc2)cc1Nc1nc(-c2cccnc2)cs1 [Masitinib] + Cc1cc(Nc2cc(N3CCN(C)CC3)nc(Sc3ccc(NC(=O)C4CC4)cc3)n2)n[nH]1 [Tozasertib] (partner 0.1 µM)
In short: as §1

Masitinib + Decitabine = compound: Cc1ccc(NC(=O)c2ccc(CN3CCN(C)CC3)cc2)cc1Nc1nc(-c2cccnc2)cs1 [Masitinib] + Nc1ncn([C@H]2C[C@H](O)[C@@H](CO)O2)c(=O)n1 [Decitabine] (partner 2 µM)
In short: as §1

Cell Line | relative viability ([1]; first compound 0.08 µM) | relative viability ([1]; first compound 0.253 µM) | relative viability ([1]; first compound 0.8 µM) | relative viability ([1]; first compound 2.53 µM) | relative viability ([1]; first compound 8 µM) | relative viability ([2]; first compound 0.08 µM) | relative viability ([2]; first compound 0.253 µM) | relative viability ([2]; first compound 0.8 µM) | relative viability ([2]; first compound 2.53 µM) | relative viability ([2]; first compound 8 µM) | relative viability (Masitinib + Tozasertib; first compound 0.03162 µM) | relative viability (Masitinib + Tozasertib; first compound 0.3162 µM) | relative viability (Masitinib + Tozasertib; first compound 1 µM) | relative viability (Masitinib + Decitabine; first compound 0.01 µM) | relative viability (Masitinib + Decitabine; first compound 0.03162 µM) | relative viability (Masitinib + Decitabine; first compound 0.1 µM) | relative viability (Masitinib + Decitabine; first compound 0.3162 µM) | relative viability (Masitinib + Decitabine; first compound 1 µM) | relative viability (Masitinib + Tozasertib; first compound 0.01 µM) | relative viability (Masitinib + Tozasertib; first compound 0.1 µM)
NCI-H3122 | 1.05 | 1.08 | 1.05 | 1.09 | 1.08 | 0.578 | 0.591 | 0.548 | 0.587 | 0.457 | 0.502 | 0.387 | 0.417 | 0.528 | 0.484 | 0.525 | 0.467 | 0.451 | – | –
PC-3 [JPC-3] | 0.36 | 0.375 | 0.453 | 0.362 | 0.467 | 0.926 | – | 1.01 | 1.07 | 0.924 | 0.782 | 0.824 | 0.878 | 0.828 | 0.771 | 0.824 | 0.819 | 0.785 | 0.879 | 0.917
PC-14 | 0.295 | 0.258 | 0.338 | 0.312 | 0.292 | 0.298 | 0.289 | 0.289 | 0.238 | 0.162 | 0.563 | 0.482 | 0.478 | 0.217 | 0.202 | 0.192 | 0.16 | 0.25 | 0.5 | 0.512
RERF-LC-KJ | 0.73 | 0.766 | 0.693 | 0.741 | 0.728 | 0.509 | 0.258 | 0.184 | 0.181 | 0.163 | 0.41 | 0.465 | 0.336 | 0.631 | 0.71 | 0.743 | 0.762 | 0.618 | 0.558 | 0.492
SK-LU-1 | 0.994 | 1.05 | – | 0.835 | 0.937 | 0.49 | 0.435 | – | 0.459 | 0.433 | 0.299 | 0.35 | 0.292 | 0.569 | 0.526 | 0.725 | 0.594 | 0.646 | 0.349 | 0.319
SK-MES-1 | 0.449 | 0.416 | 0.378 | 0.432 | 0.369 | 0.423 | 0.437 | 0.466 | 0.457 | 0.401 | 0.907 | 0.677 | 0.81 | 0.329 | 0.399 | 0.376 | 0.39 | 0.337 | 1.02 | 0.925
SW 1573 | 1.13 | 0.977 | 1.15 | 1.38 | 1.08 | 0.486 | 0.544 | 0.526 | 0.465 | 0.441 | 0.144 | 0.15 | 0.135 | 0.492 | 0.537 | 0.535 | 0.51 | 0.471 | 0.133 | 0.213
